Among the test systems are A549 NSCLC; MALME-3M melanoma; MDA-MB-231 breast; MOLT-4 leukemia; NCI-H23 lung; OVCAR-4 ovarian; OVCAR-5 ovarian; RPMI-8226 leukemia; SK-MEL-2 melanoma; SN12C renal.
Holding throughout (assay): inhibition of tumour cell growth, NCI panel, 48 h

Where “and” joins values, the source holds several entries; their conditions need not be identical. Identical values can stand only once.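 Five compound concentrations were applied to cells in 96-well plates for 48 hours; endpoints were derived by simple linear interpolation of the resulting dose-response curve. At the GI50, growth is halved. TGI: concentration producing complete growth inhibition.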

Regarding `CO[C@@H]1/C=C\C=C(/C)C(=O)NC2=CC(=O)C(NCCN(C)C)=C(C[C@@H](C)C[C@@H](OC)[C@@H](O)[C@H](C)/C=C(\C)[C@H]1OC(N)=O)C2=O`, the TGI with A549 NSCLC is 13.3 µM and 18.8 µM; in the experiment with MALME-3M melanoma, 3.73 µM and 0.562 µM; with MDA-MB-231 breast, 7.26 µM and 2.24 µM; in the experiment with MOLT-4 leukemia it was 1.02 µM and 8.39 µM; in the experiment on NCI-H23 lung, 7.14 µM; with OVCAR-4 ovarian, 4.76 µM and 4.52 µM. In addition, the TGI is 9.23 µM and 7.52 µM with OVCAR-5 ovarian; 19.6 µM and 6.32 µM with RPMI-8226 leukemia; 21.3 µM and 12.3 µM in the experiment on SK-MEL-2 melanoma; 2.78 µM and 3.81 µM in the experiment on SN12C renal. Moreover, the GI50 with MDA-MB-231 breast is 0.019 µM and 0.018 µM; in the experiment with MOLT-4 leukemia, 0.0444 µM; in the experiment with NCI-H23 lung, under 0.0125 µM; in the experiment with OVCAR-5 ovarian, 0.406 µM and 0.11 µM; with SN12C renal, 0.0135 µM.

Turning to `CN(C)C=Nc1cccc2nsnc12`, the TGI with A549 NSCLC, with MALME-3M melanoma, with MDA-MB-231 breast, in the experiment with MOLT-4 leukemia, with NCI-H23 lung and in the experiment with OVCAR-4 ovarian was over 100 µM each time. Besides, the TGI with OVCAR-5 ovarian, in the experiment on RPMI-8226 leukemia, with SK-MEL-2 melanoma and in the experiment with SN12C renal was over 100 µM each time.

Take `O=C1c2ccccc2-c2c1c1ccccc1c(=O)n2CCCNCCCn1ccnc1`: the GI50 is 1.02 µM in the experiment on A549 NSCLC; 3.33 µM with MALME-3M melanoma; 2.68 µM with MDA-MB-231 breast; 0.0267 µM in the experiment with MOLT-4 leukemia; 0.411 µM in the experiment on NCI-H23 lung; 6.34 µM with OVCAR-4 ovarian. For the same compound, the GI50 with OVCAR-5 ovarian was 1.55 µM; in the experiment with RPMI-8226 leukemia, 0.195 µM; in the experiment on SK-MEL-2 melanoma it was 2.56 µM; with SN12C renal, 0.367 µM. The TGI with A549 NSCLC is 20.1 µM; in the experiment with MALME-3M melanoma, 13.4 µM; in the experiment on MDA-MB-231 breast, 7.36 µM; in the experiment on MOLT-4 leukemia, 0.358 µM; in the experiment on NCI-H23 lung it was 1.53 µM; with OVCAR-4 ovarian it was 28.1 µM. Besides, the TGI with OVCAR-5 ovarian came out at 4.93 µM; in the experiment on RPMI-8226 leukemia, 1.02 µM; in the experiment on SK-MEL-2 melanoma, 8.17 µM; in the experiment on SN12C renal, 1.29 µM.

As to `CC12OC(c3ccccc3)=CC(c3ccc(Cl)cc3)=C1C(c1ccccc1)=CC2=O` (stereo not given), the GI50 is 89.1 µM in the experiment with A549 NSCLC; over 100 µM with MALME-3M melanoma; 67.2 µM with MDA-MB-231 breast; 20.6 µM with MOLT-4 leukemia; 41.5 µM in the experiment with NCI-H23 lung; 19 µM with OVCAR-4 ovarian. For the same compound, the GI50 was over 100 µM in the experiment on OVCAR-5 ovarian, 17.3 µM with RPMI-8226 leukemia, over 100 µM with SK-MEL-2 melanoma and over 100 µM with SN12C renal. For the same compound, the TGI with A549 NSCLC was over 100 µM; in the experiment with MALME-3M melanoma, over 100 µM; with MDA-MB-231 breast it was over 100 µM; with MOLT-4 leukemia it was 75.6 µM; in the experiment on NCI-H23 lung, over 100 µM; in the experiment with OVCAR-4 ovarian it was over 100 µM. Besides, the TGI in the experiment on OVCAR-5 ovarian was over 100 µM; in the experiment on RPMI-8226 leukemia it was 47.2 µM; in the experiment with SK-MEL-2 melanoma, over 100 µM; with SN12C renal, over 100 µM.

For the compound `C=C1C(=O)O[C@H]2[C@H]1CC/C(CNC(=O)c1cc3cc(OC)ccc3[nH]1)=C\CC[C@@]1(C)O[C@@H]21`, the GI50 was 3.69 µM with A549 NSCLC; 1.62 µM with MALME-3M melanoma; 1.71 µM with MDA-MB-231 breast; 2.08 µM in the experiment with MOLT-4 leukemia; 1.77 µM in the experiment on NCI-H23 lung; 2 µM in the experiment with OVCAR-4 ovarian. In addition, the GI50 in the experiment with OVCAR-5 ovarian was 2.19 µM; with RPMI-8226 leukemia it was 1.58 µM; with SK-MEL-2 melanoma, 2.18 µM; in the experiment on SN12C renal it was 1.7 µM. Also, the TGI with A549 NSCLC worked out at 14.4 µM; in the experiment on MALME-3M melanoma, 3.98 µM; in the experiment on MDA-MB-231 breast, 4.49 µM; in the experiment with MOLT-4 leukemia, 6.85 µM; in the experiment on NCI-H23 lung it was 4.38 µM; in the experiment on OVCAR-4 ovarian it was 7.57 µM. Moreover, the TGI in the experiment with OVCAR-5 ovarian was determined as 7.35 µM; with RPMI-8226 leukemia it was 4.39 µM; in the experiment on SK-MEL-2 melanoma, 5.24 µM; in the experiment with SN12C renal, 4.87 µM.

`O=c1c(Oc2ccc(F)cc2F)cc2cnc(NC3CCOCC3)nc2n1C1CCS(=O)(=O)CC1`: the GI50 in the experiment on A549 NSCLC, with MALME-3M melanoma, in the experiment with MDA-MB-231 breast, in the experiment on MOLT-4 leukemia, with NCI-H23 lung and in the experiment on OVCAR-4 ovarian was over 25 µM throughout. Further, the GI50 in the experiment with OVCAR-5 ovarian, in the experiment with RPMI-8226 leukemia, with SK-MEL-2 melanoma and in the experiment on SN12C renal was over 25 µM each time. For the same compound, the TGI with A549 NSCLC, in the experiment on MALME-3M melanoma, in the experiment with MDA-MB-231 breast, in the experiment on MOLT-4 leukemia, with NCI-H23 lung and in the experiment on OVCAR-4 ovarian was over 25 µM throughout. Further, the TGI in the experiment with OVCAR-5 ovarian, in the experiment on RPMI-8226 leukemia, with SK-MEL-2 melanoma and in the experiment on SN12C renal was over 25 µM each time.

In the case of `CC(=O)C(=[N+]=[N-])C(=O)NCC#N`, the TGI in the experiment with A549 NSCLC, with MALME-3M melanoma, with MDA-MB-231 breast, in the experiment on MOLT-4 leukemia, in the experiment on NCI-H23 lung and in the experiment on OVCAR-4 ovarian was over 10 µM throughout. In addition, the TGI in the experiment with OVCAR-5 ovarian, in the experiment with RPMI-8226 leukemia, in the experiment with SK-MEL-2 melanoma and with SN12C renal was over 10 µM in each case.

Take `CCOC(=O)c1cc(C#N)c(=O)n(/N=C(\C)c2ccncc2)c1O`: the GI50 in the experiment with A549 NSCLC, in the experiment with MALME-3M melanoma, with MDA-MB-231 breast, with MOLT-4 leukemia, in the experiment on NCI-H23 lung and in the experiment on OVCAR-4 ovarian was over 100 µM in each case. Further, the GI50 in the experiment with OVCAR-5 ovarian, with RPMI-8226 leukemia, with SK-MEL-2 melanoma and in the experiment on SN12C renal was over 100 µM in each case. Further, the TGI in the experiment with A549 NSCLC, in the experiment on MALME-3M melanoma, in the experiment with MDA-MB-231 breast, with MOLT-4 leukemia, in the experiment on NCI-H23 lung and in the experiment on OVCAR-4 ovarian was over 100 µM throughout. Besides, the TGI in the experiment on OVCAR-5 ovarian, in the experiment with RPMI-8226 leukemia, in the experiment on SK-MEL-2 melanoma and in the experiment with SN12C renal was over 100 µM each time.

As for `OC1(CCc2ccccc2)COC(C(F)(F)F)(C(F)(F)F)C1` (stereo not given), the TGI in the experiment on A549 NSCLC, in the experiment on MALME-3M melanoma, in the experiment with MDA-MB-231 breast, with MOLT-4 leukemia, in the experiment on NCI-H23 lung and in the experiment with OVCAR-4 ovarian was over 100 µM in each case. The TGI in the experiment on OVCAR-5 ovarian, with RPMI-8226 leukemia, in the experiment on SK-MEL-2 melanoma and in the experiment with SN12C renal was over 100 µM each time.
